The record followed here is patent US20230096028A1, “BICYCLIC HETEROCYCLYL COMPOUNDS AND USES THEREOF” (Revolution Medicines, Inc., priority 2019, published 2023).

As a reminder, the Kd is the free concentration of one partner at which half of the binding sites on the other are occupied at equilibrium, for simple one-to-one binding. Broadly, the IC50 is the point on the concentration scale where inhibition reaches its midpoint. A higher IC50 goes with lower potency.

Test [1] concerns the target T1, SOS1 catalytic domain (residues 564-1049) (Homo sapiens, UniProt Q07889).
T1 sequence (Q07889 564-1049): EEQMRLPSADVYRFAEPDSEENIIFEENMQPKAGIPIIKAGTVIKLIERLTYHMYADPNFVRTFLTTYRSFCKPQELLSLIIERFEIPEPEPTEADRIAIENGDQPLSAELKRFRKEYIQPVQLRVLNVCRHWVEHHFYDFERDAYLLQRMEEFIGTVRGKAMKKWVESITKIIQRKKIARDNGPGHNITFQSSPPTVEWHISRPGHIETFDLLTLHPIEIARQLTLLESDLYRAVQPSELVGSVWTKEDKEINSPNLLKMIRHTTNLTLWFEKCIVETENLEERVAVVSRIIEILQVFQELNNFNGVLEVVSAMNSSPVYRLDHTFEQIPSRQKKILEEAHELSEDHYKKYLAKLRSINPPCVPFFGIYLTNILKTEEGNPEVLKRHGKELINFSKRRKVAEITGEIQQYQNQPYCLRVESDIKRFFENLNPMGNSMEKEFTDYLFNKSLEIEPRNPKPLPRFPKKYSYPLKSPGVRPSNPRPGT
Nature of the test: Potency Assay: binding affinity to SOS1 using Surface Plasmon Resonance (SPR). To be noted: immobilized SOS1 catalytic domain (residues 564-1049), read-out: SOS1 SPR Equilibrium Kd. Also on record: SOS1 catalytic domain (residues 564-1049) immobilized on a sensor chip. The protocol: Data was reported as equilibrium dissociation constant (Kd) values.
Using a GE Biacore 8K SPR instrument, avi-tagged SOS1 catalytic domain protein was immobilized to a level of approximately 6000 response units (RU) on a streptavidin-coated SPR sensor chip in assay buffer containing 0.01 M HEPES, 0.15 M NaCl and 0.05% v/v Surfactant P20. […] For each test compound, a separate 0 μM sample was generated for use during subsequent double reference subtraction. Serially for each test compound, individual dilution samples were flowed over the immobilized SOS1 protein at a flow rate of 50 μL/minute to monitor the association with SOS1. Dissociation of bound test compound from the SOS1 protein was immediately monitored by flowing assay buffer over the sensor surface and monitoring the decrease in binding signal back to the baseline level seen in the absence of compound. This was repeated for all compound dilutions in each series. The binding level response for each test compound concentration was noted immediately prior to the end of the association phase, and a secondary plot generated showing binding response level versus test compound concentration generated for each compound dilution series.

For test [2], the target named is T1, SOS1 catalytic domain (residues 564-1049). Nature of the test: Mode of Action Assay: inhibition of SOS1 nucleotide exchange activity (SOS1 TR-FRET IC50 Assay). In general terms: Time-resolved FRET reads energy transfer from a long-lived donor to a nearby acceptor.

In the case of `C[C@@H](Nc1nc(Cl)nc2c1CN(C(=O)CN1CCOCC1)C2)c1cc(N)cc(C(F)(F)F)c1` [Example 89], the dissociation constant (Kd) in test [1] is less than 400 nM. The IC50 in test [2] is less than 1000 nM.

With `C[C@@H](Nc1nc(Cl)nc2c1CN(C(=O)c1cnc3cc[nH]c3c1)C2)c1cc(N)cc(C(F)(F)F)c1` [Example 90], the Kd in test [1] was more than 400 nM. This compound also came in with an IC50 in test [2] of more than 1000 nM.

In the case of `C[C@@H](Nc1nc(Cl)nc2c1CN(C(=O)c1ncc[nH]1)C2)c1cc(N)cc(C(F)(F)F)c1` [Example 95], in test [1], the Kd is more than 400 nM. The compound also showed a 50% inhibitory concentration (IC50) in test [2] of more than 1000 nM.

As to `C[C@@H](Nc1nc(Cl)nc2c1CN(C(=O)c1cnn(C3CCOCC3)c1)C2)c1cc(N)cc(C(F)(F)F)c1` [Example 96], the dissociation constant (Kd) in test [1] was less than 400 nM. For the same compound, in test [2], the IC50 is more than 1000 nM.

`C[C@@H](Nc1nc(Cl)nc2c1CN(C(=O)[C@H]1CC[C@@H](O)CC1)C2)c1cc(N)cc(C(F)(F)F)c1` [Example 99]: the Kd in test [1] was more than 400 nM. In test [2], the IC50 was less than 1000 nM.

Take `C[C@@H](Nc1nc(Cl)nc2c1CN(C(=O)C1CN(C)C1)C2)c1cc(N)cc(C(F)(F)F)c1` [Example 100]: in test [1], the dissociation constant Kd is less than 400 nM. This compound yielded an IC50 in test [2] of less than 1000 nM.

`Cc1cn2nnc(C(=O)N3Cc4nc(Cl)nc(N[C@H](C)c5cc(N)cc(C(F)(F)F)c5)c4C3)c2c(=O)[nH]1` [Example 103]: the dissociation constant (Kd) in test [1] was less than 400 nM. This compound also returned an IC50 in test [2] of more than 1000 nM.

Regarding `C[C@@H](Nc1nc(Cl)nc2c1CN(C(=O)C1CCOCC1)C2)c1cc(N)cc(C(F)(F)F)c1` [Example 116, N-[(1R)-1-[3-amino-5-(trifluoromethyl)phenyl]ethyl]-2-chloro-6-(oxane-4-carbonyl)-5H,6H,7H-pyrrolo[3,4-d]pyrimidin-4-amine], in test [1], the Kd is less than 400 nM. For the same compound, in test [2], the IC50 was less than 1000 nM.

On to `CNC(=O)N1Cc2nc(C)nc(N[C@H](C)c3cc(N)cc(C(F)(F)F)c3)c2C1` [Example 122, 4-{[(1R)-1-[3-amino-5-(trifluoromethyl)phenyl]ethyl]amino}-N,2-dimethyl-5H,6H,7H-pyrrolo[3,4-d]pyrimidine-6-carboxamide], for which the Kd in test [1] was more than 400 nM. The IC50 in test [2] was more than 1000 nM.

On to `CCOc1nc2c(c(N[C@H](C)c3cc(N)cc(C(F)(F)F)c3)n1)CN(C(=O)N1CCOCC1)C2` [Example 124, N-[(1R)-1-[3-amino-5-(trifluoromethyl)phenyl]ethyl]-2-ethoxy-6-(morpholine-4-carbonyl)-5H,6H,7H-pyrrolo[3,4-d]pyrimidin-4-amine], for which the Kd in test [1] was less than 400 nM. Moreover, the IC50 in test [2] was less than 1000 nM.

In the case of `C[C@@H](Nc1nc(C(F)(F)F)nc2c1CN(C(=O)N1CCOCC1)C2)c1cc(N)cc(C(F)(F)F)c1` [Example 127, N-[(1R)-1-[3-amino-5-(trifluoromethyl)phenyl]ethyl]-6-(morpholine-4-carbonyl)-2-(trifluoromethyl)-5H,6H,7H-pyrrolo[3,4-d]pyrimidin-4-amine], the Kd in test [1] is less than 400 nM. The same compound showed an IC50 in test [2] of more than 1000 nM.

Take `C[C@@H](Nc1nc(OC2COC2)nc2c1CN(C(=O)N1CCOCC1)C2)c1cc(N)cc(C(F)(F)F)c1` [Example 133, N-[(1R)-1-[3-amino-5-(trifluoro-methyl)phenyl]ethyl]-6-(morpholine-4-carbonyl)-2-(oxetan-3-yl-oxy)-5H,6H,7H-pyrrolo[3,4-d]pyrimidin-4-amine]: the Kd in test [1] was more than 400 nM. In addition, the IC50 in test [2] is more than 1000 nM.

For the compound `Cc1nc2c(c(N[C@H](C)c3cc(N)cc(C(F)(F)F)c3)n1)CN(C(=O)N1CCOCC1)CCC2` [Example 136, N-[(1R)-1-[3-amino-5-(trifluoromethyl)phenyl]ethyl]-2-methyl-6-(morpholine-4-carbonyl)-5H,6H,-7H,8H,9H-pyrimido[5,4-c]azepin-4-amine], the Kd in test [1] is more than 400 nM. In test [2], this compound returned an IC50 of more than 1000 nM.

Regarding `C[C@@H](Nc1nc(Cl)nc2c1CN(C(=O)N1CCCC13CCOCC3)C2)c1cc(N)cc(C(F)(F)F)c1` [Example 139], in test [1], the Kd is less than 400 nM. In test [2], this compound displayed an IC50 of less than 1000 nM.

As to `C[C@@H](Nc1nc(Cl)nc2c1CN(C(=O)N1CCOc3ccncc31)C2)c1cc(N)cc(C(F)(F)F)c1` [Example 141], the Kd in test [1] is less than 400 nM. Besides, the IC50 in test [2] was less than 1000 nM.

As to `C[C@@H]1CN(C(=O)N2Cc3nc(Cl)nc(N[C@H](C)c4cc(N)cc(C(F)(F)F)c4)c3C2)C[C@@H](C)N1` [Example 143], the Kd in test [1] is less than 400 nM. In addition, the IC50 in test [2] was less than 1000 nM.

Consider `C[C@@H](Nc1nc(Cl)nc2c1CN(C(=O)N1CCc3ncccc3C1)C2)c1cc(N)cc(C(F)(F)F)c1` [Example 147], for which, in test [1], the Kd is less than 400 nM. In test [2], this compound returned a half-maximal inhibitory concentration (IC50) of more than 1000 nM.

On to `C[C@@H](Nc1nc(Cl)nc2c1CN(C(=O)NC1CC[C@H](N)C1)C2)c1cc(N)cc(C(F)(F)F)c1` (some centres unmarked) [Example 150], for which, in test [1], the Kd was more than 400 nM. Besides, in test [2], the half-maximal inhibitory concentration (IC50) is less than 1000 nM.

In the case of `COC[C@H]1CCCN1C(=O)N1Cc2nc(Cl)nc(N[C@H](C)c3cc(N)cc(C(F)(F)F)c3)c2C1` [Example 154], the Kd in test [1] was less than 400 nM. For the same compound, in test [2], the half-inhibitory concentration (IC50) was less than 1000 nM.

On to `C[C@@H](Nc1nc(Cl)nc2c1CN(C(=O)N1CCC3(CC1)COC3)C2)c1cc(N)cc(C(F)(F)F)c1` [Example 159], for which, in test [1], the Kd is less than 400 nM. In addition, in test [2], the 50% inhibitory concentration (IC50) was less than 1000 nM.

As to `C[C@@H](Nc1nc(Cl)nc2c1CN(C(=O)N1CCC(C)(O)CC1)C2)c1cc(N)cc(C(F)(F)F)c1` [Example 162], in test [1], the Kd was less than 400 nM. This compound also returned an IC50 in test [2] of less than 1000 nM.

On to `C[C@@H]1CN(C(=O)N2Cc3nc(Cl)nc(N[C@H](C)c4cc(N)cc(C(F)(F)F)c4)c3C2)C[C@H](C)O1` [Example 163], for which the Kd in test [1] is less than 400 nM. Besides, in test [2], the IC50 was less than 1000 nM.

`COc1ccc(C(=O)N2Cc3nc(Cl)nc(N[C@H](C)c4cc(N)cc(C(F)(F)F)c4)c3C2)cc1OC` [Example 172]: the Kd in test [1] was less than 400 nM. Also, the concentration for half-maximal inhibition (IC50) in test [2] is less than 1000 nM.

As for `C[C@@H](Nc1nc(Cl)nc2c1CN(S(=O)(=O)c1cn[nH]c1)C2)c1cc(N)cc(C(F)(F)F)c1` [Example 173], the Kd in test [1] was more than 400 nM. The compound also yielded a concentration for half-maximal inhibition (IC50) in test [2] of more than 1000 nM.

`O=C(N1CCOCC1)N1Cc2nc(Cl)nc(N[C@H](CO)c3cccc(C(F)(F)F)c3)c2C1` [Example 174]: the Kd in test [1] was more than 400 nM. This compound also yielded an IC50 in test [2] of more than 1000 nM.

Take `C[C@@H](Nc1nc(Cl)nc2c1CN(C(=O)c1cc3c(cn1)OCCO3)C2)c1cc(N)cc(C(F)(F)F)c1` [Example 175]: in test [1], the dissociation constant Kd was more than 400 nM. Besides, in test [2], the IC50 is more than 1000 nM.

Turning to `C[C@@H](Nc1nc(Cl)nc2c1CN(S(=O)(=O)N1CCOCC1)C2)c1cccc(C(F)(F)CO)c1` [Example 178], the equilibrium dissociation constant (Kd) in test [1] was less than 400 nM. This compound had a half-maximal inhibitory concentration (IC50) in test [2] of less than 1000 nM.

For the compound `C[C@@H](Nc1nc(Cl)nc2c1CN(S(=O)(=O)N1CCCC1)CC2)c1cc(N)cc(C(F)(F)F)c1` [Example 182], the Kd in test [1] was less than 400 nM. The IC50 in test [2] is less than 1000 nM.

Take `COC1(C(=O)N2Cc3nc(Cl)nc(N[C@H](C)c4cccc(C(F)F)c4F)c3C2)CCN(C(C)=O)CC1` [Example 345]: the Kd in test [1] was less than 400 nM. The same compound yielded an IC50 in test [2] of less than 1000 nM.

For `CC(=O)N1CC(C)(C(=O)N2Cc3nc(Cl)nc(N[C@H](C)c4cccc(C(F)F)c4F)c3C2)C1` [Example 346], the Kd in test [1] was less than 400 nM. For the same compound, the IC50 in test [2] is less than 1000 nM.

Turning to `CC(=O)N1CC(F)(C(=O)N2Cc3nc(Cl)nc(N[C@H](C)c4cccc(C(F)F)c4F)c3C2)C1` [Example 347], the Kd in test [1] was less than 400 nM. Besides, the IC50 in test [2] is less than 1000 nM.

As for `C[C@@H](Nc1nc(Cl)nc2c1CN(C(=O)N1CCNCC1C(F)(F)F)C2)c1cc(N)cc(C(F)(F)F)c1` (some centres unmarked) [Example 358], in test [1], the Kd is less than 400 nM. Moreover, the half-maximal inhibitory concentration (IC50) in test [2] was less than 1000 nM.

`C[C@@H](Nc1nc(Cl)nc2c1CN(C(=O)N1CCNC(=O)C1)C2)c1cc(N)cc(C(F)(F)F)c1` [Example 367]: in test [1], the Kd was less than 400 nM. Besides, the IC50 in test [2] was less than 1000 nM.

With `C[C@@H](Nc1nc(Cl)nc2c1CN(C(=O)N1CCc3cccnc31)C2)c1cccc(C(F)(F)F)c1` [Example 369], the Kd in test [1] is less than 400 nM. For the same compound, the IC50 in test [2] was less than 1000 nM.

As to `C[C@@H](Nc1nc(Cl)nc2c1CN(C(=O)N1CCNc3ncccc31)C2)c1cccc(C(F)F)c1F` [Example 425], in test [1], the Kd is less than 400 nM. For the same compound, the IC50 in test [2] is less than 1000 nM.

For `C[C@@H](Nc1nc(Cl)nc2c1CN(C(=O)N1CCN(C)c3ncccc31)C2)c1cccc(C(F)F)c1F` [Example 426], the Kd in test [1] was more than 400 nM. Moreover, in test [2], the IC50 was less than 1000 nM.

Turning to `C[C@@H](Nc1nc(Cl)nc2c1CN(C(=O)N1CCNc3ncncc31)C2)c1cccc(C(F)F)c1F` [Example 427], the Kd in test [1] was less than 400 nM. For the same compound, the IC50 in test [2] was less than 1000 nM.
